Source: paper PMC5345657, “Targeting myeloid differentiation protein 2 by the new chalcone L2H21 protects LPS‐induced acute lung injury” (Journal of Cellular and Molecular Medicine, 2016)

Target: T1, MD-2 (myeloid differentiation protein 2, rhMD-2) (Homo sapiens, UniProt Q9Y6Y9)
T1 construct: gene LY96; recombinant human MD-2 (rhMD-2, R&D Systems)
T1 sequence (Q9Y6Y9 19-160): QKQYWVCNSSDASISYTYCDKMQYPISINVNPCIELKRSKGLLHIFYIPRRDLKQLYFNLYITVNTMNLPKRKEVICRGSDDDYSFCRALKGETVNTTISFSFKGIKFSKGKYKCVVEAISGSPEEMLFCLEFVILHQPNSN
Assay: SPR (ProteOn XPR36); supported by bis-ANS displacement and biotin-LPS competition ELISA; R90A and Y102A abolish binding

Question: How did the Kd turn out when `COc1cccc(/C=C/C(=O)c2ccc(O)c(O)c2)c1OC` [L2H21, (E)‐2,3‐Dimethoxy‐3′,4′‐dihydroxychalcone] was run?
Answer: The Kd was 19.1 µM.
